ChEMBL document CHEMBL4507276 (2021)

Assays:
Conditions in all cases: Compound concentration 1000.0 nM
[1] = target: Serine/threonine-protein kinase D1 (Homo sapiens) (UniProt Q15139)
[2] = target: Eukaryotic translation initiation factor 2-alpha kinase 1 (Homo sapiens) (UniProt Q9BQI3)
[3] = tested on: T1, Receptor-type tyrosine-protein kinase FLT3 (Homo sapiens), P36888 [D835Y]
T1 sequence (whole entry): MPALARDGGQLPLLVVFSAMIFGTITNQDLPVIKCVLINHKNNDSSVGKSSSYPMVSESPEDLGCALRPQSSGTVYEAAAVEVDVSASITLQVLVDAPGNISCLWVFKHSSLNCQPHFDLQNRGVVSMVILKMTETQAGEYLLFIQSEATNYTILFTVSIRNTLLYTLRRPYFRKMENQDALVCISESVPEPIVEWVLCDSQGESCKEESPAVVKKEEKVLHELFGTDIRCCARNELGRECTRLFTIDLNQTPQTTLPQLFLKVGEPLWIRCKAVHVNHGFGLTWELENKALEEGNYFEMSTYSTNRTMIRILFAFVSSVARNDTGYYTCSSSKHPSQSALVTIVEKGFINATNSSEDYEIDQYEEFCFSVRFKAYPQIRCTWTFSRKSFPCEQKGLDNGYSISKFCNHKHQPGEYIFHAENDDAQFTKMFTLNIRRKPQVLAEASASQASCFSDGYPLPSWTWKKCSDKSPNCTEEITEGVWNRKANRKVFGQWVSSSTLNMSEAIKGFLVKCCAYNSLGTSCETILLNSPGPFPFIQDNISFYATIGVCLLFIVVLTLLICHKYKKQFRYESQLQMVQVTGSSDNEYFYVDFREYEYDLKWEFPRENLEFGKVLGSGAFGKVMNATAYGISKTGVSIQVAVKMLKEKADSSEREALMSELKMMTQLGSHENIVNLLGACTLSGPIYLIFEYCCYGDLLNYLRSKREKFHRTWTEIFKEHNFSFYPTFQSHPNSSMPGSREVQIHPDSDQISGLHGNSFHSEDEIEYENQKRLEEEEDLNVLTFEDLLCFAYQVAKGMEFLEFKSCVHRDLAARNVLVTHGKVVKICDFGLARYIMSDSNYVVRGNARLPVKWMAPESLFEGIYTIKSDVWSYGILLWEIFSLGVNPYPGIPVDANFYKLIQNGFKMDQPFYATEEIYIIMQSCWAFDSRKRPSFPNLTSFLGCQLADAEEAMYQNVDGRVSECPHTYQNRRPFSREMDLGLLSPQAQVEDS

[4] = tested on: Mast/stem cell growth factor receptor Kit (Homo sapiens), P10721 [A829P]
[5] = tested on: Phosphatidylinositol 4,5-bisphosphate 3-kinase catalytic subunit alpha isoform (Homo sapiens), P42336 [E545K]
[6] = target: Homeodomain-interacting protein kinase 3 (Homo sapiens) (UniProt Q9H422)
[7] = target: Vascular endothelial growth factor receptor 2 (Homo sapiens) (UniProt P35968)
[8] = target: T2, Tyrosine-protein kinase Tec (Homo sapiens) (UniProt P42680)
T2 sequence (whole entry): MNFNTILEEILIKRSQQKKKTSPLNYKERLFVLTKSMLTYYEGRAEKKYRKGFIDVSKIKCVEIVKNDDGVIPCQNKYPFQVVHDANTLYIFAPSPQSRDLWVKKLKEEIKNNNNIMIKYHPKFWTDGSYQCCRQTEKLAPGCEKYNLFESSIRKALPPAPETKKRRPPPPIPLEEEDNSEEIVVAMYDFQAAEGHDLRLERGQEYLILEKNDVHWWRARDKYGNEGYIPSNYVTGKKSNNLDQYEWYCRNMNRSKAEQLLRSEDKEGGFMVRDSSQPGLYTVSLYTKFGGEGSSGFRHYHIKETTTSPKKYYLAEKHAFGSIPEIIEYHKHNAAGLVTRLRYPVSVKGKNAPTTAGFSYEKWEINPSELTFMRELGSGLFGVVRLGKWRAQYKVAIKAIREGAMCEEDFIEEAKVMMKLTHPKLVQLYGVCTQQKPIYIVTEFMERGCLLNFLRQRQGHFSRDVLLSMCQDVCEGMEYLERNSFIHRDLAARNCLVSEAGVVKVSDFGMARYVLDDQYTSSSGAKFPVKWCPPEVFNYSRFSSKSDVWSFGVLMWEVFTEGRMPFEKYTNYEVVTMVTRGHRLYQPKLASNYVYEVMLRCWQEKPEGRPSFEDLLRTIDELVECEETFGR

[9] = target: Insulin-like growth factor 1 receptor (Homo sapiens) (UniProt P08069)
[10] = target: Serine/threonine-protein kinase MAK (Homo sapiens) (UniProt P20794)
[11] = target: T3, Testis-specific serine/threonine-protein kinase 3 (Homo sapiens) (UniProt Q96PN8)
T3 sequence (whole entry): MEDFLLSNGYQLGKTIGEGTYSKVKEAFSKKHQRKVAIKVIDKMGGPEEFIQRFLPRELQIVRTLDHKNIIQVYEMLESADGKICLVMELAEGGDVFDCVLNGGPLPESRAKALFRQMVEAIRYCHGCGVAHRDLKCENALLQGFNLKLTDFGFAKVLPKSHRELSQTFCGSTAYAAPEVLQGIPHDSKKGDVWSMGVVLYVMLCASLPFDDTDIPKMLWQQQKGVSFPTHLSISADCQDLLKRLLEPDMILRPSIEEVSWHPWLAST

[12] = target: Receptor tyrosine-protein kinase erbB-3 (Homo sapiens) (UniProt P21860)
[13] = target: TRAF2 and NCK-interacting protein kinase (Homo sapiens) (UniProt Q9UKE5)

Measured: residual activity

Vascular endothelial growth factor receptor 2 (Homo sapiens), sequence (P35968 whole entry): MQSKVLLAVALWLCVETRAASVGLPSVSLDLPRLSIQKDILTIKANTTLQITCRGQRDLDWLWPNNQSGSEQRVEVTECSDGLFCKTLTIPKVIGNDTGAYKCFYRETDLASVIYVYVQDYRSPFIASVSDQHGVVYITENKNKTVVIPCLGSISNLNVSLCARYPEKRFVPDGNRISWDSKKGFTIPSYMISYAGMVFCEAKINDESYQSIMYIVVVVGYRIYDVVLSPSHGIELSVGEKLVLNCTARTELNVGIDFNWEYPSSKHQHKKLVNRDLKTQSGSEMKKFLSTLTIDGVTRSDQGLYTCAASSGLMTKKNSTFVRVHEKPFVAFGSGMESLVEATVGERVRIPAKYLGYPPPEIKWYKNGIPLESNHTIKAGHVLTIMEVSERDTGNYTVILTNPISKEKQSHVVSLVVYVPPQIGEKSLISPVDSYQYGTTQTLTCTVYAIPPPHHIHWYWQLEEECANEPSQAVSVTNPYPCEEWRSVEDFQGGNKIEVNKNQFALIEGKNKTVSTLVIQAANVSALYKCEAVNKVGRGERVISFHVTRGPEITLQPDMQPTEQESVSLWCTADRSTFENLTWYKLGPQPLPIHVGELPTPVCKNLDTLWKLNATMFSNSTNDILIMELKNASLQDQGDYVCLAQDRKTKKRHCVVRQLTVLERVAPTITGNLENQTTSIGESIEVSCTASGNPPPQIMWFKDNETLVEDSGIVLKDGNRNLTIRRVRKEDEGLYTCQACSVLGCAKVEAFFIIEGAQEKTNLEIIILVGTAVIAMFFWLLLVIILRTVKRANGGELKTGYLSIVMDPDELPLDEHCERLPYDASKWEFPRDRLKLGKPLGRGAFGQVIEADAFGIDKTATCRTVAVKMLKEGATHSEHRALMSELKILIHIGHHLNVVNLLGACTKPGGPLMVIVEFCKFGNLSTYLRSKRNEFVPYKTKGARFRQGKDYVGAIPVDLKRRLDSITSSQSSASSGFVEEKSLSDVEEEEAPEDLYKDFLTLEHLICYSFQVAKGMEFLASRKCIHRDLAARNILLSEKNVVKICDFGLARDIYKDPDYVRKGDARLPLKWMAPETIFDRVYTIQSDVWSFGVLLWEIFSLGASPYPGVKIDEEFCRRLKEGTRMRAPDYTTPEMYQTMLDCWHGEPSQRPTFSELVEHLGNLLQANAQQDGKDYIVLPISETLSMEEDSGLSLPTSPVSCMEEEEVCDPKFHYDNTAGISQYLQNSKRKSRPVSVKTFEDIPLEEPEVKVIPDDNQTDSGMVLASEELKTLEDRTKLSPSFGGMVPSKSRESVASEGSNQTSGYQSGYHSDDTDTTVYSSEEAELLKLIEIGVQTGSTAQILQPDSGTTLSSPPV
Insulin-like growth factor 1 receptor (Homo sapiens), sequence (P08069 31-736 limits assumed): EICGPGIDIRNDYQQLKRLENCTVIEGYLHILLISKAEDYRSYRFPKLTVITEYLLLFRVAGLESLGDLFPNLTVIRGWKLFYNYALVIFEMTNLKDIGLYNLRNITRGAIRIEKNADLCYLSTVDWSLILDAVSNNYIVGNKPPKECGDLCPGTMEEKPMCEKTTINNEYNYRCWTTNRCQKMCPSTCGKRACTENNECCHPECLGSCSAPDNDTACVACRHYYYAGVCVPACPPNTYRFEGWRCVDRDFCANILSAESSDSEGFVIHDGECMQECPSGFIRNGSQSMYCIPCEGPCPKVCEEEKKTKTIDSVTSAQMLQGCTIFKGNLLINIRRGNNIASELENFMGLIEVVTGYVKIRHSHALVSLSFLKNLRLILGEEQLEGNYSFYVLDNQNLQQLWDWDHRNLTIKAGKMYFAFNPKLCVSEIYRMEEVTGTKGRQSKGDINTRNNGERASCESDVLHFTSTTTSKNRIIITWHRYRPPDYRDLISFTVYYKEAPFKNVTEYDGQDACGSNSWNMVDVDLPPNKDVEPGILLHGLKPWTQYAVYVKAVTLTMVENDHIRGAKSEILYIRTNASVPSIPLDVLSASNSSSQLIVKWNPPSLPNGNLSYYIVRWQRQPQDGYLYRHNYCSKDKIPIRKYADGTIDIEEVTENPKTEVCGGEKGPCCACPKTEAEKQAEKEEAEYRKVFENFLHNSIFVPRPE
Insulin-like growth factor 1 receptor (Homo sapiens), sequence (P08069 741-1367 limits assumed): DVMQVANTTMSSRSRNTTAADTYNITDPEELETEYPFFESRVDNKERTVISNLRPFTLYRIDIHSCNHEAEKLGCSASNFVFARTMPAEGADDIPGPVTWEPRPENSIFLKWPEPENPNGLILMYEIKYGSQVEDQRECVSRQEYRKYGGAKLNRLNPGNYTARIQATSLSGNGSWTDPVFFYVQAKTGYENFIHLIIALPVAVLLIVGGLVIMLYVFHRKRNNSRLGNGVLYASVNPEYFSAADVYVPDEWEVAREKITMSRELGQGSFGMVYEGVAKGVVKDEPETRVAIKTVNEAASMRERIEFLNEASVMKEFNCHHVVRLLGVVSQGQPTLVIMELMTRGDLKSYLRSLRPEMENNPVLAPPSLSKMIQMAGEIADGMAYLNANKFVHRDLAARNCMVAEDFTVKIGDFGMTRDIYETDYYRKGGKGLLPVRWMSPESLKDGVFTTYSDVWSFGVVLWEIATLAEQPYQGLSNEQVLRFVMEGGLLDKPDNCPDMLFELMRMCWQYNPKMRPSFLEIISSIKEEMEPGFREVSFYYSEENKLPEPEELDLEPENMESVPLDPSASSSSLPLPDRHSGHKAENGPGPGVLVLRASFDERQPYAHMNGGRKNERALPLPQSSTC
Phosphatidylinositol 4,5-bisphosphate 3-kinase catalytic subunit alpha isoform (Homo sapiens), P42336 [E545K], sequence (P42336 whole entry E545K, canonical isoform): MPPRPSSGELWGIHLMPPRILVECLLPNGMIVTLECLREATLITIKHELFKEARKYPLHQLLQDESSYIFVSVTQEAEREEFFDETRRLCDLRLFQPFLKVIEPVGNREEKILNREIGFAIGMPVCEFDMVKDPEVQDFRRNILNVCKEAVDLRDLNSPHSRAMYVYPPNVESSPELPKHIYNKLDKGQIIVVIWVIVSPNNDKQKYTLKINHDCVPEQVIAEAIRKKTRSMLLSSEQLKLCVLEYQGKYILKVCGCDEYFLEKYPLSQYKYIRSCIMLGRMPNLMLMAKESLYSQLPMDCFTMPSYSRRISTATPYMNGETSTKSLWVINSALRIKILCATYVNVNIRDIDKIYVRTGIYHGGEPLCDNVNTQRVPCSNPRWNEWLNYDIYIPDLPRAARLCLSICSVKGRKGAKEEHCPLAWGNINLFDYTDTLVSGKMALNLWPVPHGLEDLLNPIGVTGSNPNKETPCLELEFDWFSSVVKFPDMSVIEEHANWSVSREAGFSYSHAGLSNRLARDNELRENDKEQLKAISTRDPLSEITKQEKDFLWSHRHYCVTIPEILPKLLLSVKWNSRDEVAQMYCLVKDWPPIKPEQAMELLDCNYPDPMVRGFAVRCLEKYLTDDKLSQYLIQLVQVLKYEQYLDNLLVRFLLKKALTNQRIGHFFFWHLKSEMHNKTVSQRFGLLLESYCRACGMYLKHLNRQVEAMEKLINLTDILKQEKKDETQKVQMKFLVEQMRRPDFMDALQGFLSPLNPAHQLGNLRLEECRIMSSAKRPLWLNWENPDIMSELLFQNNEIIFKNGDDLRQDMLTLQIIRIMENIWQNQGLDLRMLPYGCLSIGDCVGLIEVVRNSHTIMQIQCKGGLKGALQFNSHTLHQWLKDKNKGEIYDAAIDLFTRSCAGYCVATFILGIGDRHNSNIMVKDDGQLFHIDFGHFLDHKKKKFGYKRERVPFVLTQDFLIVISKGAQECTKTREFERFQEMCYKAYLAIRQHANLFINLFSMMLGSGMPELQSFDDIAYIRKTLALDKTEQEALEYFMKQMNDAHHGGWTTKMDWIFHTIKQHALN
Homeodomain-interacting protein kinase 3 (Homo sapiens), sequence (Q9H422 whole entry, looked up): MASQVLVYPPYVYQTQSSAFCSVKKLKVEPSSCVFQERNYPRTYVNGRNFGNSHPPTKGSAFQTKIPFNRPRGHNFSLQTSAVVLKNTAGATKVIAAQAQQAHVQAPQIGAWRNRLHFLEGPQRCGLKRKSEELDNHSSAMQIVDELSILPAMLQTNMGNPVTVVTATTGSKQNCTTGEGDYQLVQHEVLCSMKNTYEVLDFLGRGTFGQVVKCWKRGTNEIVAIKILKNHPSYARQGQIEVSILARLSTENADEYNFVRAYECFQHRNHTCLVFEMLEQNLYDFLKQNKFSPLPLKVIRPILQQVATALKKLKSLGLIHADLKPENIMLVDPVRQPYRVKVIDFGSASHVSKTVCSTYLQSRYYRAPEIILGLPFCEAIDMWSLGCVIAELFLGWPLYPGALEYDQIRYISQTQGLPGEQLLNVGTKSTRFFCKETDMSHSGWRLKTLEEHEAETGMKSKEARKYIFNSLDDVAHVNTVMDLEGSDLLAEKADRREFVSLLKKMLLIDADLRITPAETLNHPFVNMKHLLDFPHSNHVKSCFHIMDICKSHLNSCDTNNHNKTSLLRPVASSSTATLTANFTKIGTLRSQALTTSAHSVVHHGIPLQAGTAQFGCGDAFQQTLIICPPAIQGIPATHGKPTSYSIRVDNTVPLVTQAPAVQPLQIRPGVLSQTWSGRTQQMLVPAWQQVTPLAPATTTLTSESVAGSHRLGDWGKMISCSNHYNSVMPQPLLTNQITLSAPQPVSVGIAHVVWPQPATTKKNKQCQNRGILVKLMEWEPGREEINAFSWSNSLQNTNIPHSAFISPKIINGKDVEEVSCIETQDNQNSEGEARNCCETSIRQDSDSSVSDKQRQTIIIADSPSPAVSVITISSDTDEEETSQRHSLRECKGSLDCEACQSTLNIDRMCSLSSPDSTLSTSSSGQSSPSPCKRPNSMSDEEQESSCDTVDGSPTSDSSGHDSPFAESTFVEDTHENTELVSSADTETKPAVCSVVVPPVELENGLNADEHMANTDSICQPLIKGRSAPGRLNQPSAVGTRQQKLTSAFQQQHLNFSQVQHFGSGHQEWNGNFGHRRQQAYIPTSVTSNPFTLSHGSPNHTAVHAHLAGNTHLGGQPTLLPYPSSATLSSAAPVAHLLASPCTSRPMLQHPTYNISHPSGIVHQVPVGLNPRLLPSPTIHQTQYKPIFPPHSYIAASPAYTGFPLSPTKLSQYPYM

CN(C)C(=O)Cn1cc(-c2nc(C3(c4ccc(-c5cnc(N)nc5)cc4)CC3)no2)cn1 [BI 0153]
inactive: [1] 100% | [2] 88% | [3] 100% | [4] 93% | [5] 85% | [6] 71% | [7] 70% | [8] 93% | [9] 85% | [10] 87% | [11] 97% | [12] 87% | [13] 100%

CN(C)C(=O)Cn1cc(-c2nc([C@@](C)(c3ccc(-c4cnc(N)nc4)cc3)C3CC3)no2)cn1 [BI 665915]
inactive: [1] 100% | [2] 96% | [3] 85% | [4] 80% | [5] 81% | [6] 97% | [7] 87% | [8] 93% | [9] 100% | [10] 100% | [11] 68% | [12] 95% | [13] 100%
